In patent US20130089599A1, “NANO-ENCAPSULATED THERAPEUTICS FOR CONTROLLED TREATMENT OF INFECTION AND OTHER DISEASES” (The United States of America as Represented by the …, priority 2011, published 2013):
Converted amounts (≈) assume the structure as drawn.

Legend:
[1] = system: P. mirabilis; experiment: in vitro antibacterial activity (MIC50); assay type: cell-based
[2] = system: 4 bacterial strains (A. bumannii, P. aeruginosa, P. mirabilis and S. aureus); experiment: in vitro antibacterial activity (MIC50), summary over strains; assay type: cell-based; details: against all 4 bacterial strains
[3] = system: S. aureus; experiment: MIC50 for inhibition ring formation (MICfir), agar plate; assay type: cell-based; details: Staphylococcus aureus; S.a; read-out: 50% minimum inhibitory concentrations (MIC50) needed for growth ring formation
[4] = system: P. aeruginosa; experiment: in vitro antibacterial activity (MIC50); assay type: cell-based
[5] = system: K. pneumoniae; experiment: MIC50 for inhibition ring formation (MICfir), agar plate; assay type: cell-based; details: Klebsiella pneumoniae; K.p; read-out: 50% minimum inhibitory concentrations (MIC50) needed for growth ring formation
[6] = system: P. aeruginosa; experiment: as above; assay type: cell-based; details: Pseudomonas aeruginosa; P.a; read-out: 50% minimum inhibitory concentrations (MIC50) needed for growth ring formation
[7] = system: A. bumannii; experiment: in vitro antibacterial activity (MIC50); assay type: cell-based; details: for Amount of Antimicrobial Agent required for Inhibition / MIC50 / in vitro antibacterial activity of individual antibiotic (MIC50): A. bumannii; for reduction of MIC50 of Rifampicin in cocktail with silver (control = 1) / reduction of MIC50 of Tobramycin in cocktail with silver (control = 1): A. baumannii
[8] = system: P.m; experiment: MIC50 for inhibition ring formation (MICfir), agar plate; assay type: cell-based; details: Proteus mirabilis, read-out: 50% minimum inhibitory concentrations (MIC50) needed for growth ring formation
[9] = system: S. aureus; experiment: in vitro antibacterial activity (MIC50); assay type: cell-based; details: for MIC50: Staphylococcus aureus
[10] = system: A. baumannii; experiment: MIC50 for inhibition ring formation (MICfir), agar plate; assay type: cell-based; details: Acinetobacter baumannii; A.b; read-out: 50% minimum inhibitory concentrations (MIC50) needed for growth ring formation
[11] = system: S. aureus methicillin resistant strain; experiment: as above; assay type: cell-based; details: Staphylococcus aureus, MRSA; read-out: 50% minimum inhibitory concentrations (MIC50) needed for growth ring formation
[12] = system: A. baumannii; experiment: effect of storage time on antibiotic functionality; assay type: physicochemical; details: 1 mg/ml solution stored at 37° C., day 0 to day 35
Procedure: The effect of storage time on antibiotic functionality of tobramycin and rifampicin against A. baumannii were also tested. Tobramycin and rifampicin solutions (1 mg/ml in water and DMSO, respectively) were kept at room temperature (24° C.) or 37° C. for up to 35 days, and the antimicrobial activities of the antibiotics at different time points were tested by applying the antibiotics to A. Baumannii. MIC50 were determined and compared. […] P values for tobramycin and rifampicin (from day 0 to day 35) are 0.593 and 0.442 respectively (FIG. 3)

With `CO[C@H]1/C=C/O[C@@]2(C)Oc3c(C)c(O)c4c(O)c(c(/C=N/N5CCN(C)CC5)c(O)c4c3C2=O)NC(=O)/C(C)=C\C=C\[C@H](C)[C@H](O)[C@@H](C)[C@@H](O)[C@@H](C)[C@H](OC(C)=O)[C@@H]1C` [Rifampicin] the “Amount of Antimicrobial Agent required for Inhibition” value (shortened to “Amount … for Inhibition”) [1] was 3.77 ± 0.92 mg/mL, the “in vitro antibacterial activity of individual antibiotic (MIC50)” value (“in vitro antibacterial activity” below) [1] was 3.77 ± 0.92 mg/mL and the MIC50 [2] was under 0.01 mg/mL. The MIC50 [3] was 0.02 ± 0.001 mg/L (≈ 0.0243 µM), the “Amount … for Inhibition” value [4] was 19.08 ± 6.14 mg/mL and the “in vitro antibacterial activity” value [4] was 19.08 ± 6.14 mg/mL. For the same compound, the MIC50 [5] was 0.045 ± 0.0036 mg/mL (≈ 54.7 µM), the MIC50 [6] was 0.185 ± 0.0158 mg/mL (≈ 225 µM) and the “Amount … for Inhibition” value [7] was 0.085 ± 0.01 mg/mL. For the same compound, the MIC50 [7] was at most 0.001 mg/mL, the “in vitro antibacterial activity” value [7] was 0.085 ± 0.01 mg/mL and the MIC50 [8] was 0.026 ± 0.0035 mg/mL (≈ 31.6 µM). For the same compound, the MIC50 [9] was at most 0.001 mg/mL, the MIC50 [10] was 0.045 ± 0.0026 mg/mL (≈ 54.7 µM) and the MIC50 [11] was 0.02 ± 0.001 mg/L (≈ 0.0243 µM).

With `C[C@@H](O)[C@H]1C(=O)N2C(C(=O)O)=C(SCCN=CN)C[C@H]12` [Imipenem] the “Amount … for Inhibition” value [1] was 1.02 ± 0.01 mg/mL, the “in vitro antibacterial activity” value [1] was 1.02 ± 0.01 mg/mL and the MIC50 [2] was under 0.01 mg/mL. For the same compound, the “Amount … for Inhibition” value [4] was 0.91 ± 0.56 mg/mL, the “in vitro antibacterial activity” value [4] was 0.91 ± 0.56 mg/mL and the “Amount … for Inhibition” value [7] was 10.25 ± 2.33 mg/mL. For the same compound, the “in vitro antibacterial activity” value [7] was 10.25 ± 2.33 mg/mL.

In the case of `CCC[C@@H]1C[C@@H](C(=O)N[C@@H]([C@H]2O[C@H](SC)[C@H](O)[C@@H](O)[C@H]2O)[C@H](C)Cl)N(C)C1` [Clindamycin], the “Amount … for Inhibition” value [1] is reported as 23.88 ± 8.43 mg/mL, the “in vitro antibacterial activity” value [1] is reported as 23.88 ± 8.43 mg/mL and the “Amount … for Inhibition” value [4] is reported as over 1000 mg/mL. The “in vitro antibacterial activity” value [4] was over 1000 mg/mL, the “Amount … for Inhibition” value [7] was 2.72 ± 0.68 mg/mL and the “in vitro antibacterial activity” value [7] was 2.72 ± 0.68 mg/mL.

With `[Ag+]` [Silver Ion] the “Amount … for Inhibition” value [1] was 4.56 ± 1.49 mg/mL, the “reduction of MIC50 of Rifampicin in cocktail with silver (control = 1)” value (“reduction of MIC50 of Rifampicin” for short) ([1]; Silver Ion at Mic 12.5) was 0.74 fold and the “reduction of MIC50 of Tobramycin in cocktail with silver (control = 1)” value (from here on “reduction of MIC50 of Tobramycin”) ([1]; Silver Ion at Mic 12.5) was 0.74 fold. For the same compound, the “reduction of MIC50 of Rifampicin” value ([1]; Silver Ion at Mic 25) was 2.4 fold, the “reduction of MIC50 of Tobramycin” value ([1]; Silver Ion at Mic 25) was 2.5 fold and the “reduction of MIC50 of Rifampicin” value ([1]; Silver Ion at Mic 50) was 6.3 fold. The “reduction of MIC50 of Tobramycin” value ([1]; Silver Ion at Mic 50) was 6.5 fold, the “Amount … for Inhibition” value [4] was 5.34 ± 3.07 mg/mL and the “reduction of MIC50 of Rifampicin” value ([4]; Silver Ion at Mic 12.5) was 1.6 fold. For the same compound, the “reduction of MIC50 of Tobramycin” value ([4]; Silver Ion at Mic 12.5) was 1.6 fold, the “reduction of MIC50 of Rifampicin” value ([4]; Silver Ion at Mic 25) was 4.1 fold and the “reduction of MIC50 of Tobramycin” value ([4]; Silver Ion at Mic 25) was 4.1 fold. For the same compound, the “reduction of MIC50 of Rifampicin” value ([4]; Silver Ion at Mic 50) was 10.4 fold, the “reduction of MIC50 of Tobramycin” value ([4]; Silver Ion at Mic 50) was 10.4 fold and the “Amount … for Inhibition” value [7] was 1.52 ± 0.73 mg/mL. For the same compound, the “reduction of MIC50 of Rifampicin” value ([7]; Silver Ion at Mic 12.5) was 1.73 fold, the “reduction of MIC50 of Tobramycin” value ([7]; Silver Ion at Mic 12.5) was 2 fold and the “reduction of MIC50 of Rifampicin” value ([7]; Silver Ion at Mic 25) was 3.6 fold. The “reduction of MIC50 of Tobramycin” value ([7]; Silver Ion at Mic 25) was 4.2 fold, the “reduction of MIC50 of Rifampicin” value ([7]; Silver Ion at Mic 50) was 9 fold and the “reduction of MIC50 of Rifampicin” value ([9]; Silver Ion at Mic 12.5) was 1 fold. For the same compound, the “reduction of MIC50 of Tobramycin” value ([9]; Silver Ion at Mic 12.5) was 1.13 fold, the “reduction of MIC50 of Rifampicin” value ([9]; Silver Ion at Mic 25) was 9.3 fold and the “reduction of MIC50 of Tobramycin” value ([9]; Silver Ion at Mic 25) was 9.3 fold. For the same compound, the “reduction of MIC50 of Rifampicin” value ([9]; Silver Ion at Mic 50) was 21 fold and the “reduction of MIC50 of Tobramycin” value ([9]; Silver Ion at Mic 50) was 21 fold.

In the case of `CN[C@H](CC(C)C)C(=O)N[C@H]1C(=O)N[C@@H](CC(N)=O)C(=O)N[C@H]2C(=O)N[C@H]3C(=O)N[C@H](C(=O)N[C@H](C(=O)O)c4cc(O)cc(O)c4-c4cc3ccc4O)[C@H](O)c3ccc(c(Cl)c3)Oc3cc2cc(c3O[C@@H]2O[C@H](CO)[C@@H](O)[C@H](O)[C@H]2O[C@H]2C[C@](C)(N)[C@H](O)[C@H](C)O2)Oc2ccc(cc2Cl)[C@H]1O` [Vancomycin], the “Amount … for Inhibition” value [1] is reported as over 1000 mg/mL, the “in vitro antibacterial activity” value [1] is reported as over 1000 mg/mL and the “Amount … for Inhibition” value [4] is reported as over 1000 mg/mL. For the same compound, the “in vitro antibacterial activity” value [4] was over 1000 mg/mL, the “Amount … for Inhibition” value [7] was 79.4 ± 4.1 mg/mL and the “in vitro antibacterial activity” value [7] was 79.4 ± 4.1 mg/mL.

`NC[C@H]1O[C@H](O[C@H]2[C@H](O)[C@@H](O[C@H]3O[C@H](CO)[C@@H](O)[C@H](N)[C@H]3O)[C@H](N)C[C@@H]2N)[C@H](N)C[C@@H]1O` [Tobramycin] was tested, and the “Amount … for Inhibition” value [1] was 7.2 ± 0.73 mg/mL, the “in vitro antibacterial activity” value [1] was 7.2 ± 0.73 mg/mL and the MIC50 [2] was under 0.01 mg/mL. The MIC50 [3] was 2.2 ± 0.16 mg/L (≈ 4.71 µM), the “Amount … for Inhibition” value [4] was 0.44 ± 0.12 mg/mL and the “in vitro antibacterial activity” value [4] was 0.44 ± 0.12 mg/mL. For the same compound, the “change of MIC50 on storage (antibiotic functionality)” value [12] was “no significantly change”, the MIC50 [5] was 0.00038 ± 5e-05 mg/mL (≈ 0.813 µM) and the MIC50 [6] was 0.0056 ± 0.0002 mg/mL (≈ 12 µM). For the same compound, the “Amount … for Inhibition” value [7] was 1.05 ± 0.02 mg/mL, the MIC50 [7] was at most 0.001 mg/mL and the “in vitro antibacterial activity” value [7] was 1.05 ± 0.02 mg/mL. The MIC50 [8] was 0.0031 ± 0.0002 mg/mL (≈ 6.63 µM), the MIC50 [9] was at most 0.001 mg/mL and the MIC50 [10] was 0.0071 ± 0.0005 mg/mL (≈ 15.2 µM). For the same compound, the MIC50 [11] was over 200 mg/L.
